Among the data in the supplement of paper PMC10307832 are relative viability values, retold here.

Common to all, as to assay: relative viability (nuclei count vs DMSO), 5 days (fraction); higher = more cells survive
Compound in the assay “Idelalisib + Phenformin”: CC[C@H](Nc1ncnc2[nH]cnc12)c1nc2cccc(F)c2c(=O)n1-c1ccccc1 [Idelalisib] + N=C(N)NC(=N)NCCc1ccccc1 [Phenformin] (partner 250 µM)
In outline:
(§1)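 Values are medians from duplicate plates. Each reflects relative viability, defined as the nuclei count of treated wells over that of vehicle wells. Lung cancer cell lines in 1536-well plates were pin-tool dosed one day after seeding with one drug alone or with a fixed anchor-drug dose plus five library-drug doses (not always all listed) in √10 steps, then fixed, stained and imaged at 4× after 5 days.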

Compound in the assay “Idelalisib + Olaparib”: CC[C@H](Nc1ncnc2[nH]cnc12)c1nc2cccc(F)c2c(=O)n1-c1ccccc1 [Idelalisib] + O=C(c1cc(Cc2n[nH]c(=O)c3ccccc23)ccc1F)N1CCN(C(=O)C2CC2)CC1 [Olaparib] (partner 8 µM)
In outline: as §1

Compound in the assay “Pemetrexed + Trametinib”: Nc1nc2[nH]cc(CCc3ccc(C(=O)N[C@@H](CCC(=O)O)C(=O)O)cc3)c2c(=O)[nH]1 [Pemetrexed] + CC(=O)Nc1cccc(-n2c(=O)n(C3CC3)c(=O)c3c(Nc4ccc(I)cc4F)n(C)c(=O)c(C)c32)c1 [Trametinib] (partner 0.02 µM)
The gist of the method:
as §1

Compound in the assay “Pemetrexed + Crizotinib”: Nc1nc2[nH]cc(CCc3ccc(C(=O)N[C@@H](CCC(=O)O)C(=O)O)cc3)c2c(=O)[nH]1 [Pemetrexed] + C[C@@H](Oc1cc(-c2cnn(C3CCNCC3)c2)cnc1N)c1c(Cl)ccc(F)c1Cl [Crizotinib] (partner 1 µM)
The gist of the method: as §1

For UMC-11, the relative viability with Idelalisib + Phenformin (first compound 0.04 µM) is 0.323; with Idelalisib + Phenformin (first compound 0.1265 µM), 0.327; with Idelalisib + Phenformin (first compound 0.4 µM), 0.303; with Idelalisib + Phenformin (first compound 1.265 µM) it was 0.321; in the assay with Idelalisib + Phenformin (first compound 4 µM), 0.318; with Idelalisib + Olaparib (first compound 0.04 µM), 0.416. Moreover, the relative viability with Idelalisib + Olaparib (first compound 0.1265 µM) is 0.347; with Idelalisib + Olaparib (first compound 0.4 µM), 0.407; with Idelalisib + Olaparib (first compound 1.265 µM), 0.631; with Idelalisib + Olaparib (first compound 4 µM), 0.351; in the assay with Pemetrexed + Trametinib (first compound 0.002 µM), 0.659; with Pemetrexed + Trametinib (first compound 0.006325 µM), 0.663. In addition, the relative viability with Pemetrexed + Trametinib (first compound 0.02 µM) came out at 0.819; with Pemetrexed + Trametinib (first compound 0.06325 µM), 0.655; in the assay with Pemetrexed + Trametinib (first compound 0.2 µM), 0.619; with Pemetrexed + Crizotinib (first compound 0.002 µM), 0.603; with Pemetrexed + Crizotinib (first compound 0.006325 µM), 0.635; with Pemetrexed + Crizotinib (first compound 0.02 µM), 0.666. In addition, the relative viability in the assay with Pemetrexed + Crizotinib (first compound 0.06325 µM) amounted to 0.715; with Pemetrexed + Crizotinib (first compound 0.2 µM), 0.566.
